Consider 11 molecules from patent publication US11058678B2 (Enanta Pharmaceuticals, Inc., priority 2018, dated 2021).

pEC50: −log10 of the molar value.

This test deals with HBV (2.2.15 cells). The test can be described thus: Antiviral activity in 2.2.15 cells: reduction of viral product accumulation (qPCR of lysates, HBsAg or HBeAg ELISA). The format is cell-based, hepatitis B virus (HBV). Particulars: Hepatitis B virus, 120 h, day 5 post treatment, 50% reduction of viral product accumulation in lysates or supernatants vs no drug controls, readout (qPCR, HBsAg, HBeAg) not specified. The procedure:
2.2.15 cells are passaged upon attaining confluency in DMEM/F12 media in the presence of 10% FBS, Penn/Strep, and 250 ug/mL G418. Novel compounds are 5 fold serially diluted in DMSO and added to 96 well plates containing 35,000 cells/well at a 1:200 dilution so that the final concentration of DMSO is 0.5%. On day 5, post treatment cell lysates and supernatants are harvested for analysis.
Cells are lysed using Agilent Sidestep Lysis buffer, diluted 1:100 and quantified via quantitative real time PCR. Commercially available ELISA kits are used to quantitate the viral proteins HBsAg (Alpco) or HBeAg (US Biological) by following the manufacturer's recommended protocol after diluting samples to match the linear range of their respective assays. Irrespective of readout, compound concentrations that reduce viral product accumulation in the cell lysates or supernatants by 50% relative to no drug controls (EC50) are reported; EC50 ranges are as follows: A<0.1 μM; B 0.1-1 μM; C>1 μM.
On the technique in general: Quantitative PCR measures a nucleic acid by following its amplification.
On to `COCCCOc1cc2c(cc1-n1cccn1)-c1cc(=O)c(C(=O)O)cn1[C@@H](C(C)(C)C)C2` [Example 51, (R)-6-(tert-butyl)-9-(3-methoxypropoxy)-2-oxo-10-(1H-pyrazol-1-yl)-6,7-dihydro-2H-pyrido[2,1-a]isoquinoline-3-carboxylic Acid], for which the pEC50 (in general, −log10 of the EC50, conventionally taken in molar units) is > 7.00. In the case of `CC(C)(C)[C@@H]1Cc2c(cc(-c3ccco3)c3c2CCO3)-c2cc(=O)c(C(=O)O)cn21` [Example 72, (S)-5-(tert-butyl)-12-(furan-2-yl)-9-oxo-2,3,4,9-tetrahydro-5H-furo[3,2-f]pyrido[2,1-a]isoquinoline-8-carboxylic Acid], the pEC50 is > 7.00. `CC(C)(C)[C@@H]1Cc2c(cc(C3CCOC3)c3c2CCO3)-c2cc(=O)c(C(=O)O)cn21` (stereo partly drawn) [Example 130, (5S)-5-(tert-butyl)-9-oxo-12-(tetrahydrofuran-3-yl)-2,3,4,9-tetrahydro-5H-furo[3,2-f]pyrido[2,1-a]isoquinoline-8-carboxylic Acid]: the pEC50 is > 7.00. The same measure for `CC(C)(C)[C@@H]1Cc2c(cc(-c3cnsc3)c3c2CCO3)-c2cc(=O)c(C(=O)O)cn21` [Example 73, (S)-5-(tert-butyl)-12-(isothiazol-4-yl)-9-oxo-2,3,4,9-tetrahydro-5H-furo[3,2-f]pyrido[2,1-a]isoquinoline-8-carboxylic Acid]: > 7.00. As to `CC(C)(C)[C@@H]1Cc2ccc(N3CC(F)(F)C3)cc2-c2cc(=O)c(C(=O)O)cn21` [Example 154, (S)-6-(tert-butyl)-10-(3,3-difluoroazetidin-1-yl)-2-oxo-6,7-dihydro-2H-pyrido[2,1-a]isoquinoline-3-carboxylic Acid], the pEC50 was < 6.00. With `CC(C)[C@@H]1Cc2c(cc(-c3cccc(F)c3)c3c2CCO3)-c2cc(=O)c(C(=O)O)cn21` [Example 107, (S)-12-(3-fluorophenyl)-5-isopropyl-9-oxo-2,3,4,9-tetrahydro-5H-furo[3,2-f]pyrido[2,1-a]isoquinoline-8-carboxylic Acid], the pEC50 is > 7.00. Consider `CC(C)[C@@H]1Cc2c(cc(-c3ccccc3)c3c2CCO3)-c2cc(=O)c(C(=O)O)cn21` [Example 93, (S)-5-isopropyl-9-oxo-12-phenyl-2,3,4,9-tetrahydro-5H-furo[3,2-f]pyrido[2,1-a]isoquinoline-8-carboxylic Acid], for which the pEC50 is > 7.00. Take `CC(C)(C)[C@@H]1Cc2c(cc(N3CC4(COC4)C3)c3c2CCO3)-c2cc(=O)c(C(=O)O)cn21` [Example 119, (S)-5-(tert-butyl)-9-oxo-12-(2-oxa-6-azaspiro[3.3]heptan-6-yl)-2,3,4,9-tetrahydro-5H-furo[3,2-f]pyrido[2,1-a]isoquinoline-8-carboxylic Acid]: the pEC50 was < 6.00. On to `CC(C)[C@@H]1Cc2c(cc(-c3ccncc3)c3c2CCO3)-c2cc(=O)c(C(=O)O)cn21` [Example 104, (S)-5-isopropyl-9-oxo-12-(pyridin-4-yl)-2,3,4,9-tetrahydro-5H-furo[3,2-f]pyrido[2,1-a]isoquinoline-8-carboxylic Acid], for which the pEC50 was > 7.00.

`COCCCOc1cc2c(cc1N1CCC(F)(F)C1)-c1cc(=O)c(C(=O)O)cn1[C@H](C(C)(C)C)C2` [Example 54, (S)-6-(tert-butyl)-10-(3,3-difluoropyrrolidin-1-yl)-9-(3-methoxypropoxy)-2-oxo-6,7-dihydro-2H-pyrido[2,1-a]isoquinoline-3-carboxylic Acid] gave a pEC50 of 6.00 to 7.00. Consider `COCCCOc1cc2c(cc1-c1ccnn1C)-c1cc(=O)c(C(=O)O)cn1[C@H]1[C@@H]2COC1(C)C` [Example 122, (3aS,12bR)-11-(3-methoxypropoxy)-3,3-dimethyl-10-(1-methyl-1H-pyrazol-5-yl)-7-oxo-3,3a,7,12b-tetrahydro-1H-furo[3,4-c]pyrido[2,1-a]isoquinoline-6-carboxylic Acid], for which the pEC50 is < 6.00.
